Biological target: T1, 5-HT2B receptor (Homo sapiens, UniProt P41595)
T1 construct: host or cells: CHO-K1
Experiment: 5-HT2B receptor binding, 3H-LSD ligand displacement assay
Conditions: for inhibition at 0.001 µM: 0.001 uM compound; for inhibition at 0.01 µM: 0.01 uM compound; for inhibition at 0.1 µM: 0.1 uM compound; for inhibition at 1 µM: 1 uM compound; for inhibition at 10 µM: 10 uM compound
Description: 5-HT2B receptor binding (performed at Eurofins Panlabs Taiwan, Ltd.) to human receptor protein expressed in CHO-K1 cells was determined in a ligand displacement assay using ^3H-lysergic acid diethylamide (LSD) as radioligand and ketanserine as a standard reference compound. Data is presented as % displacement of radioligand at indicated compound concentrations, see Table 1 and Table 2.

T1 sequence (P41595 whole entry): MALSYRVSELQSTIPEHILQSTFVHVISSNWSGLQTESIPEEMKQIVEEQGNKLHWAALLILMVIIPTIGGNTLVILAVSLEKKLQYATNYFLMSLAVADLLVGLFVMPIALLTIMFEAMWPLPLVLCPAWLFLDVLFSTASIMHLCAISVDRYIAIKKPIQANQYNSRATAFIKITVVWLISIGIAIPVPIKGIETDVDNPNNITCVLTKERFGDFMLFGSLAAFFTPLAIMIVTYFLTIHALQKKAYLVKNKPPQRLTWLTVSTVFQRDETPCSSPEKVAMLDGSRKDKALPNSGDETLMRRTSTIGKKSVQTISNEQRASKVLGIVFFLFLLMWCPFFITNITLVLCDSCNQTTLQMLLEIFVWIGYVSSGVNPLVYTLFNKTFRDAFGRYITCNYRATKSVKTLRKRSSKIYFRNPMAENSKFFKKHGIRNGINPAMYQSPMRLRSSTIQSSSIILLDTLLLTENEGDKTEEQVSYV

SMILES	inhibition at 0.001 µM	inhibition at 0.01 µM	inhibition at 0.1 µM	inhibition at 1 µM	inhibition at 10 µM
CC1CN(C(=N)Nc2ccc(Cl)cc2)N=C1c1ccccc1O (stereo not drawn) [Example 103, N-(4-Chlorophenyl)-3-(2-hydroxyphenyl)-4-methyl-4,5-dihydro-1H-pyrazole-1-carboximidamide]	42%	90%	99%		
COc1ccccc1C1=NN(C(=N)NCC(F)(F)F)CC1C (stereo not drawn) [Example 94, 3-(2-Methoxyphenyl)-4-methyl-N-(2,2,2-trifluoroethyl)-4,5-dihydro-1H-pyrazole-1-carboximidamide]	-12%	17%	77%		
COc1cccc(Cl)c1C1=NN(C(=N)N)CC1 [Example 33, 3-(2-Chloro-6-methoxyphenyl)-4,5-dihydro-1H-pyrazole-1-carboximidamide]			5%	37%	
CCC1CC(c2ccccc2Cl)=NN1C(=N)N (stereo not drawn) [Example 27, 3-(2-Chlorophenyl)-5-ethyl-4,5-dihydro-1H-pyrazole-1-carboximidamide]			25%	76%	
N=C(N)N1N=C(c2ccccc2Cl)C2CCCC21 (stereo not drawn) [Example 30, 3-(2-Chlorophenyl)-4,5,6,6a-tetrahydrocyclopenta[c]pyrazole-1(3aH)-carboximidamide]			44%	88%	
COc1ccc(C2=NN(C(=N)N)CC2)cc1OC [Example 16, 3-(3,4-Dimethoxyphenyl)-4,5-dihydro-1H-pyrazole-1-carboximidamide, reference compound]				6%	42%
COc1cc(F)ccc1C1=NN(C(=N)N)CC1C (stereo not drawn) [Example 49, 3-(4-Fluoro-2-methoxyphenyl)-4-methyl-4,5-dihydro-1H-pyrazole-1-carboximidamide]		11%	28%	78%	
N=C(N)N1CCC(c2ccccc2F)=N1 [Example 11, 3-(2-Fluorophenyl)-4,5-dihydro-1H-pyrazole-1-carboximidamide]			10%	53%	
COc1ccc(Cl)cc1C1=NN(C(=N)N)CC1C (stereo not drawn) [Example 51, 3-(5-Chloro-2-methoxyphenyl)-4-methyl-4,5-dihydro-1H-pyrazole-1-carboximidamide]		7%	31%	76%	
CC1CN(C(=N)NCc2ccccc2)N=C1c1ccccc1O (stereo not drawn) [Example 42, N-Benzyl-3-(2-hydroxyphenyl)-4-methyl-4,5-dihydro-1H-pyrazole-1-carboximidamide]	49%	97%	98%	99%	
N=C(N)N1CCC(c2c(O)cccc2Cl)=N1 [Example 34, 3-(2-Chloro-6-hydroxyphenyl)-4,5-dihydro-1H-pyrazole-1-carboximidamide]			23%	52%	
COc1c(Cl)cccc1C1=NN(C(=N)NC#N)CC1C (stereo not drawn) [Example 90, 3-(3-Chloro-2-methoxyphenyl)-N-cyano-4-methyl-4,5-dihydro-1H-pyrazole-1-carboximidamide]	3%	1%	-2%		
COc1ccc(C2=NN(C(=N)N)CC2C)c(OC)c1 (stereo not drawn) [Example 66, 3-(2,4-Dimethoxyphenyl)-4-methyl-4,5-dihydro-1H-pyrazole-1-carboximidamide]		5%	12%	41%	
CC1CN(C(=N)N)N=C1c1ccc(C(F)(F)F)cc1O (stereo not drawn) [Example 69, 3-(2-Hydroxy-4-(trifluoromethyl)phenyl)-4-methyl-4,5-dihydro-1H-pyrazole-1-carboximidamide]			70%	97%	
COc1c(Cl)cccc1C1=NN(C(=N)Nc2ccccc2)CC1C (stereo not drawn) [Example 88, 3-(3-Chloro-2-methoxyphenyl)-4-methyl-N-phenyl-4,5-dihydro-1H-pyrazole-1-carboximidamide]	53%	92%	97%		
CCCCNC(=N)N1CC(C)C(c2cccc(Cl)c2O)=N1 (stereo not drawn) [Example 79, N-Butyl-3-(3-chloro-2-hydroxyphenyl)-4-methyl-4,5-dihydro-1H-pyrazole-1-carboximidamide]	79%	91%	94%		
CC1CN(C(=N)NCc2ccc(Cl)cc2)N=C1c1ccccc1O (stereo not drawn) [Example 55, N-(4-Chlorobenzyl)-3-(2-hydroxyphenyl)-4-methyl-4,5-dihydro-1H-pyrazole-1-carboximidamide]	16%	67%			
CC1CN(C(=N)Nc2ccccc2)N=C1c1cccc(Cl)c1O (stereo not drawn) [Example 89, 3-(3-Chloro-2-hydroxyphenyl)-4-methyl-N-phenyl-4,5-dihydro-1H-pyrazole-1-carboximidamide]	88%	100%	97%		

SMILES	inhibition at 0.001 µM	inhibition at 0.01 µM	inhibition at 0.1 µM	inhibition at 1 µM	inhibition at 10 µM
COc1ccc(NC(=N)N2CC(C)C(c3ccccc3O)=N2)cc1 (stereo not drawn) [Example 105, 3-(2-Hydroxyphenyl)-N-(4-methoxyphenyl)-4-methyl-4,5-dihydro-1H-pyrazole-1-carboximidamide]	46%	95%	106%		
CC1CN(C(=N)Nc2ccc(F)cc2)N=C1c1ccccc1O (stereo not drawn) [Example 101, N-(4-Fluorophenyl)-3-(2-hydroxyphenyl)-4-methyl-4,5-dihydro-1H-pyrazole-1-carboximidamide]	55%	91%	102%		
COc1ccc(CNC(=N)N2CC(C)C(c3ccccc3O)=N2)cc1Cl (stereo not drawn) [Example 62, N-(3-chloro-4-methoxybenzyl)-3-(2-hydroxyphenyl)-4-methyl-4,5-dihydro-1H-pyrazole-1-carboximidamide]	27%	72%			
COc1cc(CNC(=N)N2CC(C)C(c3ccccc3O)=N2)cc(OC)c1 (stereo not drawn) [Example 61, N-(3,5-Dimethoxybenzyl)-3-(2-hydroxyphenyl)-4-methyl-4,5-dihydro-1H-pyrazole-1-carboximidamide]	13%	36%			
CC1CN(C(=N)NCCc2ccccc2)N=C1c1ccccc1O (stereo not drawn) [Example 65, 3-(2-hydroxyphenyl)-4-methyl-N-phenethyl-4,5-dihydro-1H-pyrazole-1-carboximidamide]	48%	89%			
CCCCCCCCCCCCNC(=N)N1CC(C)C(c2cccc(Cl)c2O)=N1 (stereo not drawn) [Example 83, 3-(3-Chloro-2-hydroxyphenyl)-N-dodecyl-4-methyl-4,5-dihydro-1H-pyrazole-1-carboximidamide]	3%	23%	82%		
CC1CN(C(=N)NCC(F)(F)C(F)(F)C(F)(F)F)N=C1c1ccccc1O (stereo not drawn) [Example 93, N-(2,2,3,3,4,4,4-Heptafluorobutyl)-3-(2-hydroxyphenyl)-4-methyl-4,5-dihydro-1H-pyrazole-1-carboximidamide]	21%	80%	98%		
COc1cc(C(F)(F)F)ccc1C1=NN(C(=N)N)CC1C (stereo not drawn) [Example 68, 3-(2-Methoxy-4-(trifluoromethyl)phenyl)-4-methyl-4,5-dihydro-1H-pyrazole-1-carboximidamide]			32%	86%	
CC1CC(c2cccc3ccccc23)=NN1C(=N)N (stereo not drawn) [Example 23, 5-methyl-3-(naphthalen-1-yl)-4,5-dihydro-1H-pyrazole-1-carboximidamide]			68%	97%	
COc1ccccc1C1=NN(C(=N)Nc2ccc(F)cc2)CC1C (stereo not drawn) [Example 100, N-(4-Fluorophenyl)-3-(2-methoxyphenyl)-4-methyl-4,5-dihydro-1H-pyrazole-1-carboximidamide]	19%	27%	78%		
N=C(N)N1CCC(c2ccccc2Br)=N1 [Example 4, 3-(2-Bromophenyl)-4,5-dihydro-1H-pyrazole-1-carboximidamide]				89%	101%
CC1CN(C(=N)Nc2ccc(C(F)(F)F)cc2)N=C1c1ccccc1O (stereo not drawn) [Example 99, 3-(2-Hydroxyphenyl)-4-methyl-N-(4-(trifluoromethyl)phenyl)-4,5-dihydro-1H-pyrazole-1-carboximidamide]	48%	89%	103%		
C[C@H]1CN(C(=N)N)N=C1c1ccccc1O (single isomer, unassigned) [Example 37]		-1%	35%	72%	99%
COc1ccc(C2=NN(C(=N)N)CC2)cc1 [Example 15, 3-(4-Methoxyphenyl)-4,5-dihydro-1H-pyrazole-1-carboximidamide, reference compound]				13%	56%
CC1CC(c2c(F)cccc2F)=NN1C(=N)N (stereo not drawn) [Example 26, 3-(2,6-Difluorophenyl)-5-methyl-4,5-dihydro-1H-pyrazole-1-carboximidamide]			7%	55%	
CC1CN(C(=N)N)N=C1c1cc(F)ccc1O (stereo not drawn) [Example 46, 3-(5-Fluoro-2-hydroxyphenyl)-4-methyl-4,5-dihydro-1H-pyrazole-1-carboximidamide]		22%	54%	89%	
N=C(N)N1CCC(c2cc(F)ccc2F)=N1 [Example 7, 3-(2,5-Difluorophenyl)-4,5-dihydro-1H-pyrazole-1-carboximidamide]				47%	94%
